The first experiment concerns the target T1, Acyl-CoA: Cholesterol Acyltransferase (ACAT) (Rattus norvegicus, UniProt Q7TQM4).
T1 construct: Microsomes were obtained by differential centrifugation; from tissue; host or cells: liver microsomes of male Sprague Dawley rats
T1 sequence (Q7TQM4 1-524): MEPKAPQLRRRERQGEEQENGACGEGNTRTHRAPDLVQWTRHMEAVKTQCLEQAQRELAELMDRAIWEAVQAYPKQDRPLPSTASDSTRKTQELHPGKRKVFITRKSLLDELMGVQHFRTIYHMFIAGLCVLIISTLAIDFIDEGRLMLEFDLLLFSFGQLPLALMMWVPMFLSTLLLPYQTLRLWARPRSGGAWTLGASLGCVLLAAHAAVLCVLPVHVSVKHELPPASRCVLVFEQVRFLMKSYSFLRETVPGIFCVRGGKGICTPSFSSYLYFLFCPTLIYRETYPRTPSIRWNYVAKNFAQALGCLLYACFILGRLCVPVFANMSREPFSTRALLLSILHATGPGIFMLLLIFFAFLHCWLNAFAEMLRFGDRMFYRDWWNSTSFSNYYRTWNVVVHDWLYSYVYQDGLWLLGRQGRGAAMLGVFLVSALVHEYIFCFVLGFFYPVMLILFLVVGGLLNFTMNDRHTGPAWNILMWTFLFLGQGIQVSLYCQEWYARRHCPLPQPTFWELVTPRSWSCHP
The experiment is described as follows: Inhibition of Acyl-CoA: Cholesterol Acyltransferase (ACAT) in hepatic microsomes (In Vitro Assay). Format: biochemical, rat (male Sprague Dawley). The conditions noted are these: 75 μM 14C-oleoyl-CoA, pH 7.4, 37° C., 15 min preincubation, 10 min. How it is done:
A. Assay of the Inhibition of Acyl-CoA: Cholesterol Acyltransferase (ACAT) in Hepatic Microsomes (In Vitro Assay)
The ability of the compounds to inhibit ACAT, the enzyme responsible for the intracellular synthesis of cholesteryl esters, was tested as follows. Male Sprague Dawley rats weighing 150-300 g, were fed rat chow ad libitum. The animals were fasted for twenty-four hours prior to being euthanized by CO2. The livers were perfused in situ with 50 ml of cold 0.25 sucrose, excised, and homogenized in three volumes of 0.1M phosphate buffer, pH 7.4, that contained 0.5 mM EDTA (ethylenediamine-tetraacetic acid), 1.0 mM glutathione, 0.25M sucrose and 20 mM leupeptin. Microsomes were obtained by differential centrifugation; the supernatant from an initial spin at 15,000× g for 15 minutes was centrifuged at 105,000× g for 1 hour to pellet the microsomes. The microsomes were suspended in 0.1M phosphate buffer, pH 7.4 with 1 mM GSH and stored at -70° C. Microsomes were used within one month of preparation.
The control assay in a final volume of 200 μl consisted of 200 μg of microsomal protein, 75 μM ^14 C-oleoyl-CoA (10,000 dpm/nmol) in 0.1M phosphate, pH 7.4, that contained 1 mM glutathione. Compounds were added in 5 μl of DMSO (dimethyl sulfoxide) and additional controls were run with DMSO only. All components, except the oleoyl-CoA, were preincubated for 15 min. at 37° C. prior to the initiation of the reaction by the addition of oleoyl-CoA. The assay was terminated after 10 min by the addition of 4 ml of chloroform:methanol (2:1, v/v). 20,000 dpm of ^3 H-cholesteryl oleate and 10 μg of unlabeled cholesteryl oleate and oleic acid were added as an internal standard and carriers, respectively. After allowing 10 min. for lipid extraction, the samples were centrifuged at 1,000× g for 10 min to separate the solvent layers. The chloroform layer containing the neutral lipids was spotted onto a Baker SI250-Pa silica gel TLC plate and the plate developed using a hexane:diethyl ether:acetic acid (170:30:1) v/v/v) mobile phase. The lipids were visualized by their interaction with iodine vapor and the cholesteryl ester spot was scraped into a scintillation vial and counted. The specific activity of ACAT in the control incubation averaged 260 pmol/min/mg microsomal protein. The data obtained are expressed as the concentration at which ACAT activity is inhibited by 50% (IC50).
Turning to `CCCCO[C@H]1[C@@H](OC)O[C@H](C(=O)Nc2c(SC)cc(C)nc2SC)C(OCc2ccccc2)[C@@H]1OCCCC` (stereo in doubt) [Example 426, (2S,3R,4S,5R,6S)-N-[2,4-bis(methylthio)-6-methylpyridin-3-yl]-3-benzyloxy-4,5-dibutoxy-6-methoxy-3,4,5,6-tetrahydro-2H-pyran-2-carboxamide], the IC50 (in general, the point on the concentration scale where inhibition reaches its midpoint) was 11 to 50 µM.
Turning to `CCCCCCC1=C(CCCCCC)CC(C(=O)Nc2c(C(C)C)cccc2C(C)C)SC1` (stereo not shown) [Example 1], the IC50 was less than 2 µM.
Turning to `CCCCCCC1=C(CCCCCC)CC(C(=O)Nc2c(C)cccc2C)SC1` (stereo not shown) [Example 2], the IC50 was less than 2 µM.
Compound `CCCCCCC1=C(CCCCCC)CC(C(=O)Nc2c(Cl)cccc2Cl)SC1` (stereo not shown) [Example 3] returned an IC50 of 3 to 10 µM.
In turn, `CC(C)(C)C1C=CCC(C(=O)Nc2ccc(F)cc2F)S1` (stereo not shown) [Example 17] registered an IC50 of 11 to 50 µM.
Consider `CCCCCC1=C(CCCCC)CC(C(=O)Nc2c(C(C)C)cccc2C(C)C)SC1` (stereo not shown) [Example 27, N-(2,6-diisopropylphenyl)-3,6-dihydro-4,5-dipentyl-2H-thiopyran-2-carboxamide], for which the IC50 is less than 2 µM.
In the case of `CCCCCC1=C(CCCCC)CC(C(=O)Nc2c(C)cccc2C)SC1` (stereo not shown) [Example 28], the IC50 is less than 2 µM.
Same read-out and setting: the figure for `CCCCCC1=C(CCCCC)CC(C(=O)Nc2c(Cl)cccc2Cl)SC1` (stereo not shown) [Example 29] is less than 2 µM.
The compound `CCCCCC1=C(CCCCC)CC(C(=O)Nc2ccc(F)cc2F)SC1` (stereo not shown) [Example 30] came in with an IC50 of 11 to 50 µM.
Same read-out and setting: the figure for `CCCCCC1=C(CCCCC)CC(C(=O)Nc2c(SC)cc(C)nc2SC)SC1` (stereo not shown) [Example 31] is less than 2 µM; for `CCCCCC1=C(CCCCC)CC(C(=O)Nc2cncnc2SC)SC1` (stereo not shown) [Example 32] it is 3 to 10 µM; for `CCCCCC1=C(CCCCC)CC(C(=O)Nc2cccnc2SC)SC1` (stereo not shown) [Example 33] it is 11 to 50 µM.
With `CCCCCC1=C(CCCCC)CC(C(=O)Nc2ccc(SC)nc2)SC1` (stereo not shown) [Example 34], the IC50 lay in the range of 11 to 50 µM.
The same measure, in the same setting: then `CCCCCCCCC1=C(CCCCCCCC)CC(C(=O)Nc2c(SC)cc(C)nc2SC)SC1` (stereo not shown) [Example 35], with less than 2 µM; and `CCCCCC1=C(CCCCC)CC(C(=O)Nc2c(C)nn(C)c2SC)SC1` (stereo not shown) [Example 39], with less than 2 µM.
Compound `CCCCC1=C(CCCC)CC(C(=O)Nc2c(C(C)C)cccc2C(C)C)SC1` (stereo not shown) [Example 40] returned an IC50 of less than 2 µM.
As to `CCCCC1=C(CCCC)CC(C(=O)Nc2c(C)cccc2C)SC1` (stereo not shown) [Example 41], the IC50 was less than 2 µM.
On to `CCCCC1=C(CCCC)CC(C(=O)Nc2c(Cl)cccc2Cl)SC1` (stereo not shown) [Example 42], for which the IC50 was less than 2 µM.
In the case of `CC1=C(C)CC(C(=O)Nc2c(C(C)C)cccc2C(C)C)SC1` (stereo not shown) [Example 53], the half-maximal inhibitory concentration (IC50) fell in the range of 3 to 10 µM.
As for `CSc1cc(C)nc(SC)c1NC(=O)C1CC(C)=C(C)CS1` (stereo not shown) [Example 57], the IC50 was less than 2 µM.
Still for that read-out and setting: then `CCCCCC1C=CC(CCCCC)C(C(=O)Nc2c(C(C)C)cccc2C(C)C)S1` (stereo not shown) [Example 66, N-(2,6-diisopropylphenyl)-3,6-dihydro-3,6-dipentyl-2H-thiopyran-2-carboxamide], with less than 2 µM; and `CCCCCC1C=CC(CCCCC)C(C(=O)Nc2c(C)cccc2C)S1` (stereo not shown) [Example 67], with less than 2 µM.
`CCCCCC1C=CC(CCCCC)C(C(=O)Nc2c(Cl)cccc2Cl)S1` (stereo not shown) [Example 68] yielded an IC50 of less than 2 µM.
Compound `CCCCCC1C=CC(CCCCC)C(C(=O)Nc2ccc(F)cc2F)S1` (stereo not shown) [Example 69] yielded an IC50 of 3 to 10 µM.
Same read-out and setting: the figure for `CCCCCC1C=CC(CCCCC)C(C(=O)Nc2c(SC)cc(C)nc2SC)S1` (stereo not shown) [Example 70, N-[2,4-bis(methylthio)-6-methylpyridin-3-yl]-3,6-dipentyl-2,3-dihydro-2H-thiopyran-2-carboxamide] is less than 2 µM.
On to `CCCCCC1=CC(CCCCC)C(C(=O)Nc2c(C(C)C)cccc2C(C)C)SC1` (stereo not shown) [Example 79], for which the IC50 was less than 2 µM.
The same measure, in the same setting: then `CC1=C(C)CC(C(=O)Nc2c(C(C)C)cccc2C(C)C)OC1` (stereo not shown) [Example 104], with 11 to 50 µM; and `CSc1cc(C)nc(SC)c1NC(=O)C1CC(C)=C(C)CO1` (stereo not shown) [Example 106, N-[2,4-bis(methylthio)-6-methyl-3-pyridyl]-2,3-dihydro-4,5-dimethyl-2H-pyran-2-carboxamide], with 11 to 50 µM.
`CCCCCC1C=CC(CCCCC)[S+]([O-])C1C(=O)Nc1c(SC)cc(C)nc1SC` (stereo not shown) [Example 120]: the IC50 is less than 2 µM.
Compound `CSc1cc(C)nc(SC)c1NC(=O)C1SC(c2ccccc2)C=CC1c1ccccc1` (stereo not shown) [Example 132] gave an IC50 of less than 2 µM.
In turn, `CSc1cc(C)nc(SC)c1NC(=O)C1SCC=CC1OC(C)=O` (stereo not shown) [Example 168] gave a half-inhibitory concentration (IC50) of 3 to 10 µM.
In the case of `CSc1cc(C)nc(SC)c1NC(=O)C1SC(CCCCl)C=CC1CCCCl` (stereo not shown) [Example 180], the IC50 was less than 2 µM.
Compound `CSc1cc(C)nc(SC)c1NC(=O)C1SC(CCCSC2CCCCC2)C=CC1CCCSC1CCCCC1` (stereo not shown) [Example 184] came in with a concentration for half-maximal inhibition (IC50) of less than 2 µM.
In turn, `CCCCCCSC1CC(=O)CC(C(=O)Nc2c(SC)cc(C)nc2SC)S1` (stereo not shown) [Example 402, N-[2,4-bis(methylthio)-6-methylpyridin-3-yl]-6-hexylthio-2,3,5,6-tetrahydro-4H-thiopyran-4-one-2-carboxamide] came in with an IC50 of less than 2 µM.
Regarding `CCCCCOc1cc2c(cc1OC)CC(CCCC)CSC2C(=O)Nc1c(SC)cc(C)nc1SC` (stereo not shown) [Example 907, N-[2,4-bis(methylthio)-6-methylpyridin-3-yl]-4-butyl-7-methoxy-8-pentoxy-1,3,4,5-tetrahydro-2-benzothiepin-1-carboxamide], the IC50 was less than 2 µM.
In turn, “N-[2,6-bis(1-methylethyl)phenyl]-6,7-dimethoxy-1,2,3,4-tetrahydro-2-thianaphthalene-1-carboxamide [Example 613]” displayed an IC50 of 11 to 50 µM.

In the next experiment the test system is ACAT. The experiment is described as follows: Systemic availability of ACAT inhibitors (Ex Vivo Assay): ACAT activity in livers from orally dosed rats. Details: species or system rat (male (CD) Sprague Dawley). The following applies: rat, oral gavage 10 mg/kg, days 1-3, livers taken 3 h after last dose; class symbols. How it is done:
B. Assay for the Systemic Availability of ACAT Inhibitors (Ex Vivo Assay)
The inhibition of ACAT activity in livers obtained from rats orally dosed with an inhibitor was used as a determination of the compound's systemic availability. The ability of ACAT inhibitors to affect cholesterol esterification in livers obtained from dosed animals was tested as follows. This assay is also referred to herein as the Ex Vivo Assay. Male (CD) Sprague Dawley rats weighing from 190-210 g were fed purina lab chow ad libitum. Rats, three per group, were orally gavaged with 10 mg/kg of active ACAT inhibitor. The compounds were dissolved in ethanol (10% of final volume); a PEG solution (80 propylene glycol:20 polyethylene glycol 400, w:w) was added and the compound was mixed completely prior to dosing. A control group received the dosing vehicle alone. The animals were dosed once on Day 1 (am), twice on Day 2 (am and pm) and once on the morning of Day 3. Three hours after the last dose animals were euthanized using CO2. Livers were perfused with a 0.25M sucrose solution, excised, and frozen. Livers were thawed and resuspended in buffer (2 mL/g, 0.1M Phosphate, pH 7.4, 1.0 mM glutathione, 0.5 mM EDTA, 20 μM leupeptin, 60 μM benzamidine, and 0.25M sucrose). The samples were homogenized and post nuclear microsomes were obtained by centrifugation: 1.000× g for 5 min. and the resulting supernatant, 100,000× g for 1 hr. Microsomes were resuspended in phosphate buffer to approximately 25 mg/mL and frozen at -70° C. until assayed for ACAT activity.
ACAT assays contained in a final volume of 200 μl:100 ug microsomal protein, 75 μM ^14 C-oleoyl-CoA (10,000 dpm/nmol), 0.75 mg bovine serum albumin, 0.1M phosphate buffer, pH 7.4, and 1 mM glutathione. All components, except the oleoyl-CoA, were preincubated for 15 min at 37° C. prior to the initiation of the reaction by the addition of oleoyl-CoA. The assay was terminated after 10 min and ACAT activity determined as described in section A above. The average specific activity of ACAT in the vehicle control group was 661 +/- 64 pmol/min/mg (SEM). The data (% inhibition) are expressed as 100 minus the % ACAT activity in livers from dosed animals versus those from a vehicle control group.
For `CCCCC1=C(CCCC)CC(C(=O)Nc2c(Cl)cccc2Cl)SC1` (stereo not shown) [Example 42], the “Inhibition of ACAT, Ex Vivo Assay (% inhibition)” value (“Inhibition … (% inhibition)” below) is reported as “+ (10-49%)”.
As to `CCCCCC1C=CC(CCCCC)C(C(=O)Nc2c(C(C)C)cccc2C(C)C)S1` (stereo not shown) [Example 66, N-(2,6-diisopropylphenyl)-3,6-dihydro-3,6-dipentyl-2H-thiopyran-2-carboxamide], the “Inhibition … (% inhibition)” value was “++ (>50%)”.
Take `CCCCCC1C=CC(CCCCC)C(C(=O)Nc2c(SC)cc(C)nc2SC)S1` (stereo not shown) [Example 70, N-[2,4-bis(methylthio)-6-methylpyridin-3-yl]-3,6-dipentyl-2,3-dihydro-2H-thiopyran-2-carboxamide]: the “Inhibition … (% inhibition)” value is recorded as “++ (>50%)”.

The experiment is the same for the next values; noted with them: rat, oral gavage 10 mg/kg, days 1-3, livers taken 3 h after last dose; given as number.
`CCCCCC1=C(CCCCC)CC(C(=O)Nc2c(SC)cc(C)nc2SC)SC1` (stereo not shown) [Example 31]: the “Inhibition … (% inhibition)” value was less than 10%.

The values are drawn from patent US5491152A, “Derivatives of cyclic ethers and sulfides for the treatment of atherosclerosis” (The Du Pont Merck Pharmaceutical Company, priority 1994, dated 1996).
